Experimental data reported in paper PMC11077991, “The small molecule CBR-5884 inhibits the Candida albicans phosphatidylserine synthase” (mBio, 2024).
Where “and” joins values, the source holds several entries; their conditions need not be identical. Equal values may be shown once. Read-outs that look alike come from different tables or passages of the source.

How the values were obtained:
[1] = target: purified C. albicans Cho1 (phosphatidylserine synthase) (Candida albicans, UniProt A0A1D8PF32); experiment: malachite-green-based nucleotidase-coupled assay, dose-response; type: biochemical; conditions: top 200 µM, 3 h at 30°C, three replicates
Sequence of purified C. albicans Cho1 (phosphatidylserine synthase) (A0A1D8PF32 entry or part of it): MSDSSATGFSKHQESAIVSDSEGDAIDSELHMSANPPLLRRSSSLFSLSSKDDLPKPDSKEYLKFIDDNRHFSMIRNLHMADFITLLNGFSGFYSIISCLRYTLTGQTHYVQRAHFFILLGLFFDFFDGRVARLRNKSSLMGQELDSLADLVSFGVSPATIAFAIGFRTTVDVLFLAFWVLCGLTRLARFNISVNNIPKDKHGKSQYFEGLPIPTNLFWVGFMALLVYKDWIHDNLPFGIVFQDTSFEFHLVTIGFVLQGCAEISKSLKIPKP
Description: A malachite-green-based nucleotidase-coupled assay was used to measure the PS synthesis activity of Cho1 (Fig. 1B). Cho1 catalyzes the production of PS and cytidylmonophosphate (CMP) from CDP-DAG and serine, where CMP can then be recognized and cleaved by the nucleotidase CD73 to release inorganic phosphate, which is subsequently detected by malachite green. To test whether this malachite-green-based assay can reflect Cho1 activity, a time-course test was performed with a fixed amount of purified Cho1 in the presence of substrates (Fig. 1C).
The bioactives library was purchased from Selleck in 2014, and the remaining libraries (anti-infectives and mechanism of action libraries) were assembled from compounds available at the Chemical Biology and Therapeutics Department at St. Jude Children’s Research Hospital. The anti-infectives library contains a curated list of antimicrobials and antiviral agents ([95]). The bioactive library has a compilation of compounds acquired from commercial sources and external academic collaborators. The mechanism of action set is a dynamic set of well-annotated compounds with comprehensive coverage of human targets and mechanisms of action ([96]). All compounds were dissolved in DMSO and 100 nL was transferred to a 384-well clear bottom plate (ThermoFisher Scientific, cat# 265203) using a Beckman Echo 650 acoustic liquid handler. Equal volumes of either the selective CD73 nucleotidase inhibitor AB680 at a final concentration of 1 µM (MedChemExpress, cat# HY-125286) or DMSO were used as positive and negative controls, respectively. A total of 30–35 ng of purified Cho1 protein was used in each reaction in 50 mM Tris-HCl (pH 8.0) for primary screening, combined with 100 µM CDP-DAG (Avanti, cat# 870510), 5 mM serine, 0.4 ng CD73 nucleotidase (R&D systems, cat# EA002), 1 mM MnCl2, 0.1% APX-100, and 0.1% digitonin, in a total volume of 10 µL. Counter screen reactions were set up by replacing only the purified Cho1 with 150 µM CMP, with all other components remaining constant. The 10 µL primary and counter screening reactions were delivered to each well of 384-well assay plates containing pre-aliquoted compounds from the library using a Multidrop Combi (ThermoFisher Scientific). […] After media transfer, assay plates were incubated for 3 h at 30°C. Plates were then removed and 32 µL of malachite green mixture [6 µL malachite A (2%, wt/vol, ammonium molybdate and 20%, vol/vol, sulfuric acid in H2O) +20 µL H2O + 6 µL malachite B (0.1%, wt/vol, malachite green oxalate and 0.5%, wt/vol, polyvinyl alcohol in H2O)] were added to each well via a MultiDrop Combi and incubated for an additional 10 min at room temperature. After incubation, plates were briefly centrifuged at 500 × g and absorbance at 620 nm was then measured using a Cytation7 plate reader (Biotek, Winooski, VT). Raw absorbance values of the compounds were normalized to DMSO (0% inhibition) and AB680 (100% inhibition) from both primary and counter screens, and % Δinhibition was calculated by […]. Z-factors for each plate were calculated using the in-house program RISE (Robust Investigation of Screening Experiments). All non-PAINs compounds that had >80% Δinhibition progressed to dose-response testing (82 total compounds). Dose-response experiments were performed in triplicate as described above using a 10-point, threefold serial dilution with the top concentration for each compound tested being 200 µM (range: 0.010161–200 μM). The absorbance at 620 nm was then measured using a PHERAstar FS multilabel reader (BMG, Cary, NC). Raw values were once again normalized to DMSO (0% inhibition) and AB680 (100% inhibition) and Z-factors for each plate were calculated using RISE. […]

[2] = system: C. albicans strains GDH2346, 3153A, TFPY412 and TFPY2307; experiment: CLSI MIC broth microdilution, additional wild-type strains; type: cell-based, Candida albicans; conditions: RPMI MOPS pH 7.0, 37°C, 48 h
Description: Furthermore, there are no current reports on the antifungal effects of LOC14 and CBR-5884. To rule out the possibility that their inhibition is strain-specific, we treated four additional C. albicans wildtype strains—GDH2346 ([54]), 3153A ([55]), and two clinical isolates TFPY412 and TFPY2307—with LOC14 and CBR-5884. Tests were done in RPMI MOPS (pH 7.0) medium at 37°C for 48 h following the CLSI MIC broth microdilution protocol, and a cho1ΔΔ strain was included as a control (Fig. 3E and F).
Minimum inhibitory concentration (MIC) was determined following Clinical & Lab Standards Institute (CLSI) MIC broth microdilution protocol (Licensed to Todd Reynolds, license # Ord-1138682) ([98], [99]). Briefly, stock solutions of different compounds (purchased from MedChemExpress) were prepared at a concentration of 10 mM in DMSO and subsequently diluted as required in the same solvent. Wild-type C. albicans strain SC5314, as well as four additional wild-type strains—GDH2346, 3153A, TFPY412, and TFPY2307, were cultured overnight in YPD medium at 30°C, washed with water three times, and then diluted to a concentration of 2 × 10^3 cells/mL (OD600 = 0.00008) in one of the three media [minimal medium, minimal medium buffered with 50 mM HEPES (pH 7.0) and RPMI MOPS (pH 7.0)]. The cho1ΔΔ strain was also included as a control. […]

[3] = system: C57BL/6 j mice; set-up: method as in PMID 25848045; conditions: high dose of 20 mg/kg; cited from earlier work
[4] = Best-fit IC50, inhibition of Cho1, 10-point dose-response

## O=c1c2ccccc2[se]n1-c1ccccc1 [Ebselen]
[1]; [4]
  IC50: ≤ 20 µM and ~11.1 µM and 11.1 µM

## O=C(C1CC1)N1CCN(Cn2sc3ccccc3c2=O)CC1 [LOC14]
[2]
  growth inhibition of four additional wild-type strains: all strains were inhibited
[1]; 10-point dose-response, read-out: Best-fit IC50, inhibition of Cho1
  IC50: ~75.5 µM
[3]
  tolerability: well tolerated

## CCOC(=O)c1sc(NC(=O)c2ccco2)c(SC#N)c1C [CBR-5884]
[2]
  growth inhibition of four additional wild-type strains: all strains were inhibited
[1]; [4]
  IC50: ≤ 20 µM and ~8.44 µM
